{"source": "patent US6632456B1", "about": "“Compositions for inhalation” (AstraZeneca AB, priority 1994, dated 2003)", "key": {"[1]": {"test": "Enhancement of insulin uptake after powder inhalation in a rat model (blood glucose)", "format": "in vivo, rats", "settings": "for Effect (decrease in blood glucose level): rats, inhaled powder; for enhancement of polypeptide (insulin) absorption in the lung: rat model of Example 2, substance tested as enhancer", "method": "Each of the compounds listed in Table I was tested for its ability to enhance uptake of a polypeptide (insulin) in a rat model.\nVarious forms of insulin were employed in the different trials: recombinant human, semisynthetic human or bovine. Each formulation was prepared as above, drying and processing the insulin/enhancer or insulin/enhancer/lactose solution to produce an inhalable powder. The powder was administered to rats by inhalation, and the blood glucose levels of the rats were subsequently monitored as a measure of insulin uptake. These levels were compared to the corresponding values obtained from rats which had inhaled insulin formulations without enhancer."}, "[2]": {"system": "CaCo-2 epithelial cell monolayer", "test": "CaCo-2 epithelial cell monolayer transport assay", "format": "in vitro ADME", "settings": "for transport rate across the monolayer: CaCo-2, up to 16 mM sodium caprate", "procedure": "A standard in vitro assay utilizing an epithelial cell line, CaCo-2 (available through the American Type Culture Collection (ATCC), Rockville, Md., USA), has been developed to assess the ability of various enhancer compounds to promote transport of markers across an epithelial cell monolayer, as a model for the epithelial cell layer which functions in the lung to separate the alveolus from the pulmonary blood supply.\nIn this assay, the enhancer and polypeptide or other marker are dissolved in aqueous solution at various proportions and/or concentrations, and applied to the apical side of the cell monolayer. After 60 min incubation at 37° C. and 95% RH (relative humidity), the amount of the marker on the basolateral side of the cells is determined, e.g., by use of a radioactively labelled marker."}, "[3]": {"set-up": "species or system rats", "settings": "rat, in vivo", "procedure": "The mixture was milled in a Retsch mechanical mill to a particle size of mass median diameter 6.7 μm. The resultant powder was administered intratraceally in rats and the uptake of hGH compared with that of a powder, MMD 9.6 μm, comprising hGH and mannitol in the same proportions and prepared in the same way as above."}, "[4]": {"settings": "Enhancer:Insulin:lactose 2:4:94, vs insulin without enhancer"}, "[5]": {"settings": "Enhancer:Insulin:lactose 4:4:92, vs insulin without enhancer"}, "[6]": {"settings": "Enhancer:Insulin:lactose 25:75:0, vs insulin without enhancer"}}, "note": "Structures can show the parent of a compound that is named as a salt.", "data": [{"compound": "CCCCCCCCCC(=O)OC[C@H](COP(=O)([O-])OCC[N+](C)(C)C)OC(=O)CCCCCCCCC", "note": "[Didecanoylphospatidylcholine]", "values": [{"measurement": "Effect (decrease in blood glucose level)", "setting": "[1]; Enhancer:Insulin:lactose 4:4:94, vs insulin without enhancer", "value": "−"}]}, {"compound": "CCCCCCCC(=O)OCC(COP(=O)([O-])OCC[N+](C)(C)C)OC(=O)CCCCCCC", "note": "(centres unmarked) [Dioctanoylphosphatidylcholine]", "values": [{"measurement": "Effect (decrease in blood glucose level)", "setting": "[1]; [4]", "value": "(+)"}]}, {"compound": "CCCCCCCCOC1O[C@H](CO)[C@@H](O)[C@H](O)[C@H]1O", "note": "(some centres unmarked) [Octylglucopyranoside]", "values": [{"measurement": "enhancement of polypeptide (insulin) absorption in the lung", "setting": "[1]", "value": "some absorption enhancing properties"}, {"measurement": "Effect (decrease in blood glucose level)", "setting": "[1]; [5]", "value": "(+)"}]}, {"compound": "CCCCCCCCCC(=O)[O-].[K+]", "note": "[Potassium caprate]", "values": [{"measurement": "enhancement of polypeptide (insulin) absorption in the lung", "setting": "[1]", "value": "effective"}, {"measurement": "Effect (decrease in blood glucose level)", "setting": "[1]; Enhancer:Insulin:lactose 27:73:0, vs insulin without enhancer", "value": "+"}]}, {"compound": "CCCCCCCC/C=C\\CCCCCCCC(=O)[O-].[K+]", "note": "[Potassium oleate]", "values": [{"measurement": "Effect (decrease in blood glucose level)", "setting": "[1]; [5]", "value": "+"}]}, {"compound": "CCCCCCCCCC(=O)[O-].[Na+]", "note": "[Sodium caprate]", "values": [{"measurement": "amount of marker (mannitol) which appears on the basolateral side, insulin added", "setting": "[2]; CaCo-2 monolayer, 1:3 sodium caprate:insulin by weight (FIG. 2)", "value": "This is true"}, {"measurement": "amount of marker (mannitol) which appears on the basolateral side", "setting": "[2]; CaCo-2 monolayer, 60 min, 37° C., up to 16 mM sodium caprate (FIG. 1)", "value": "dependent upon the concentration of enhancer used"}, {"measurement": "enhancement of polypeptide (insulin) absorption in the lung", "setting": "[1]", "value": "perform well"}, {"measurement": "Effect (decrease in blood glucose level)", "setting": "[1]; [5]", "value": "+"}, {"measurement": "Effect (decrease in blood glucose level)", "setting": "[1]; Enhancer:Insulin:lactose 10:90:0, vs insulin without enhancer", "value": "(+)"}, {"measurement": "Effect (decrease in blood glucose level)", "setting": "[1]; Enhancer:Insulin:lactose 17.5:82.5:0, vs insulin without enhancer", "value": "(+)"}, {"measurement": "Effect (decrease in blood glucose level)", "setting": "[1]; [6]", "value": "+"}]}, {"compound": "CCCCCCCC(=O)[O-].[Na+]", "note": "[Sodium caprylate]", "values": [{"measurement": "Effect (decrease in blood glucose level)", "setting": "[1]; [6]", "value": "−"}]}, {"compound": "C[C@H](CCC(=O)NCC(=O)[O-])[C@H]1CC[C@H]2[C@@H]3[C@H](O)C[C@@H]4C[C@H](O)CC[C@]4(C)[C@H]3C[C@H](O)[C@]12C.[Na+]", "note": "[Sodium glycocholate]", "values": [{"measurement": "enhancement of polypeptide (insulin) absorption in the lung", "setting": "[1]", "value": "effectively enhance polypeptide absorption in the lung"}, {"measurement": "Effect (decrease in blood glucose level)", "setting": "[1]; [5]", "value": "+"}]}, {"compound": "CCCCCCCCCCCC(=O)[O-].[Na+]", "note": "[Sodium laurate]", "values": [{"measurement": "enhancement of polypeptide (insulin) absorption in the lung", "setting": "[1]", "value": "perform well"}, {"measurement": "Effect (decrease in blood glucose level)", "setting": "[1]; [6]", "value": "(+)"}]}, {"compound": "CCCCCCCCCCCCCC(=O)[O-].[Na+]", "note": "[Sodium myristate]", "values": [{"measurement": "enhancement of polypeptide (insulin) absorption in the lung", "setting": "[1]", "value": "perform well"}, {"measurement": "Effect (decrease in blood glucose level)", "setting": "[1]; Enhancer:Insulin:lactose 30:70:0, vs insulin without enhancer", "value": "+"}]}, {"compound": "C[C@H](CCC(=O)NCCS(=O)(=O)O)[C@H]1CC[C@H]2[C@@H]3[C@H](O)C[C@@H]4C[C@H](O)CC[C@]4(C)[C@H]3C[C@H](O)[C@]12C", "note": "[Sodium taurocholate]", "values": [{"measurement": "enhancement of polypeptide (insulin) absorption in the lung", "setting": "[1]", "value": "effectively enhance polypeptide absorption in the lung"}, {"measurement": "Effect (decrease in blood glucose level)", "setting": "[1]; [5]", "value": "+"}]}, {"compound": "CC(=O)OC1CC2(C)C(CC(O)C3C4(C)CCC(O)C(C)C4CCC32C)C1=C(CCCC(C)C)C(=O)NCCS(=O)(=O)O", "note": "(centres unmarked) [Sodium taurodihydrofusidate]", "values": [{"measurement": "enhancement of polypeptide (insulin) absorption in the lung", "setting": "[1]", "value": "effectively enhance polypeptide absorption in the lung"}, {"measurement": "Effect (decrease in blood glucose level)", "setting": "[1]; [4]", "value": "+"}]}, {"compound": "C[C@H](CCC(=O)[O-])[C@H]1CC[C@H]2[C@@H]3[C@@H](O)C[C@@H]4C[C@H](O)CC[C@]4(C)[C@H]3CC[C@]12C.[Na+]", "note": "[Sodium ursodeoxycholate]", "values": [{"measurement": "enhancement of polypeptide (insulin) absorption in the lung", "setting": "[1]", "value": "effectively enhance polypeptide absorption in the lung"}, {"measurement": "Effect (decrease in blood glucose level)", "setting": "[1]; [5]", "value": "+"}]}, {"compound": "O=C(O)CN(CCN(CC(=O)O)CC(=O)O)CC(=O)O", "note": "[sodium salt of ethylenediaminetetraacetic acid]", "values": [{"measurement": "enhancement of polypeptide (insulin) absorption in the lung", "setting": "[1]", "value": "ineffective"}]}, {"compound": "Dimethyl-β-cyclodextrin", "values": [{"measurement": "enhancement of polypeptide (insulin) absorption in the lung", "setting": "[1]", "value": "absorption enhancing effect"}, {"measurement": "Effect (decrease in blood glucose level)", "setting": "[1]; Enhancer:Insulin:lactose 75:25:0, vs insulin without enhancer", "value": "+"}]}, {"compound": "Lysine caprate", "values": [{"measurement": "enhancement of polypeptide (insulin) absorption in the lung", "setting": "[1]", "value": "effective"}, {"measurement": "Effect (decrease in blood glucose level)", "setting": "[1]; Enhancer:Insulin:lactose 35:65:0, vs insulin without enhancer", "value": "+"}]}, {"compound": "Lysophosphatidylcholine", "values": [{"measurement": "enhancement of polypeptide (insulin) absorption in the lung", "setting": "[1]", "value": "effective enhancer"}, {"measurement": "Effect (decrease in blood glucose level)", "setting": "[1]; [5]", "value": "+"}]}, {"compound": "albumin", "values": [{"measurement": "transport rate across the monolayer", "setting": "[2]", "value": "no increase in transport rate"}]}, {"compound": "carbonic anhydrase", "values": [{"measurement": "transport rate across the monolayer", "setting": "[2]", "value": "no increase in transport rate"}]}, {"compound": "cytochrome C", "values": [{"measurement": "transport rate across the monolayer", "setting": "[2]", "value": "no increase in transport rate"}]}, {"compound": "hGH: Human hormone (hGH, MW 22 kD, source Humatrope from Lilly), 3 parts mixed with sodium caprate (1 part), milled powder", "values": [{"measurement": "uptake of hGH", "setting": "[3]", "value": "improvement in the uptake"}]}]}
